Data published in publication PMC9458453, “What is a supercoiling-sensitive gene? Insights from topoisomerase I inhibition in the Gram-negative bacterium Dickeya dadantii” (Nucleic Acids Research, 2022).
pIC50: −log10 of the molar value.

Columns and labels:
topoisomerase I (topoI) [1] = target: T1, topoisomerase I (topoI) (Dickeya dadantii, UniProt E0SBX6); assay: pUC18 plasmid relaxation assay on agarose gel with purified topoI; format: biochemical
T1 construct: gene topA; N-terminally 6xhis-tagged topoisomerase I
T1 sequence (E0SBX6 entry or part of it): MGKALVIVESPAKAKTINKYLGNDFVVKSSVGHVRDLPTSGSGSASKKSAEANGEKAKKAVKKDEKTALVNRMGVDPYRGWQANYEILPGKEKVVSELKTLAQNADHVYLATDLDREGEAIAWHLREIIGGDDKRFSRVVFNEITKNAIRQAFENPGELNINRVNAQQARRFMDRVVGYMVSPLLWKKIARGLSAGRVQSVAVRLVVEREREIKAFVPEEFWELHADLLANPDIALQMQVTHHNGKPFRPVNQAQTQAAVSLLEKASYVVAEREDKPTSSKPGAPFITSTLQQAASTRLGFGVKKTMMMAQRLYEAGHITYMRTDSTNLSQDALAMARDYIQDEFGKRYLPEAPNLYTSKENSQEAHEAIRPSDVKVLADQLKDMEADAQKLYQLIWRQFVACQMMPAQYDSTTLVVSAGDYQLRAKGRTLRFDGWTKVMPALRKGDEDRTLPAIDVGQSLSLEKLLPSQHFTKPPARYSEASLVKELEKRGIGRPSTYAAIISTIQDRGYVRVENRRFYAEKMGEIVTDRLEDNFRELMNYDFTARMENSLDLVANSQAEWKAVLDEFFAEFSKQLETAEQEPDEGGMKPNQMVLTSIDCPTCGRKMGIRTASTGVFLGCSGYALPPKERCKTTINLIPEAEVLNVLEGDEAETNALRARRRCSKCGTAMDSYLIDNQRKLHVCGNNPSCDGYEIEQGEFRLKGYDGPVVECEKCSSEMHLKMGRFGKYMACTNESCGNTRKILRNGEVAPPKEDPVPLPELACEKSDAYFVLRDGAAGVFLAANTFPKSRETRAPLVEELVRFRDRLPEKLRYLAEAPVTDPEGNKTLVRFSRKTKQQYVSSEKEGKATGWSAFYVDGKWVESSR

topoisomerase I (topoI) [2] = target: T2, topoisomerase I (topoI) (Escherichia coli, UniProt P06612); assay: plasmid relaxation assay on agarose gel with purified commercial topoI; format: biochemical
T2 construct: gene topA; commercial topoI (NEB)
T2 sequence (P06612 whole entry): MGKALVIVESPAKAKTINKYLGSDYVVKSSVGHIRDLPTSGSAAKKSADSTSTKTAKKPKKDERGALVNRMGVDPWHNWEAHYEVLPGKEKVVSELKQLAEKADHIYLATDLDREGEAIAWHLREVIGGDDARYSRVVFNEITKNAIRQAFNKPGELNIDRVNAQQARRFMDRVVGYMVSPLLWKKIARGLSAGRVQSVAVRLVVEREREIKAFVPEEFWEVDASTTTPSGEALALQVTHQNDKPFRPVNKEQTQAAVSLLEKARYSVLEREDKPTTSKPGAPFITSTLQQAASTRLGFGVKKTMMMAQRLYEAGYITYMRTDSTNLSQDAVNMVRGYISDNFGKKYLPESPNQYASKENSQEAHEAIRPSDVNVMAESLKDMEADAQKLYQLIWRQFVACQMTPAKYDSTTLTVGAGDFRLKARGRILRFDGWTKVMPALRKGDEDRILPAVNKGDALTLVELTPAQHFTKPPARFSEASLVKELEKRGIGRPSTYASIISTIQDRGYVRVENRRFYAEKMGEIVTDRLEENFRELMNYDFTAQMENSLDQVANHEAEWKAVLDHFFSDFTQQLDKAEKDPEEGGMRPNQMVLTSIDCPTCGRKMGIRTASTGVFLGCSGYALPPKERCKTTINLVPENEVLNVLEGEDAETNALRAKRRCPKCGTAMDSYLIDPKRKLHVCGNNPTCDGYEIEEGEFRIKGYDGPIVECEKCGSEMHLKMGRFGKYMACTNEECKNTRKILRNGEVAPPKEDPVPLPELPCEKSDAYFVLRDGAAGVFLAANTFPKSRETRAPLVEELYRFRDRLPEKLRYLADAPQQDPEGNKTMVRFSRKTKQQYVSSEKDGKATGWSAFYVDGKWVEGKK

## CNCCc1cc2c(c3c1ccc1cc4c(cc13)OCO4)OCO2 [SCN, seconeolitsine]
Topoisomerase I (topoI) [1]
  pIC50: 5.40
Topoisomerase I (topoI) [2]
  pIC50: ~5.15
